The assay addresses T1, HIV-1 protease (Human immunodeficiency virus type 1 group M subtype B, UniProt P04585).
T1 construct: Purified HIV-1 protease was obtained as described below; made in house; host or cells: E. coli K12 L507/pHP10D (NRRL B-18560)
The assay is described as follows: biochemical. As to conditions: for IC50: read-out: Fluorescence Assay IC50 (converted). How it is done:
N^α -Biotin-[…]Ne-FITC)-OH
The purified peptide was labeled as follows with a fluorescent marker at the C-terminal end for use in the assay. N^α -Biotin-Gly-Ser-Gln-Asn-Tyr-Pro-lle-Val-Gly-Lys-OH (1.206 g, 0.936 mmoles) was dissolved in 100 mL of 0.1M sodium borate, pH 9.5 with stirring. Then, 3 g of fluorescein isothiocyanate (7.7 mmol) was dissolved in 15 mL dimethyl sulfoxide and the solution added to the reaction in 10 equal portions over the course of a two hour period. The reaction was allowed to proceed for a further one hour after the final addition had been made. The pH of the solution was adjusted to 3 with 5N HCl. A precipitate formed which was removed from the reaction by centrifugation.
Fluorescence HIV-1 Protease Inhibitor Assay Procedure.
To each well of a round bottom, 96-well plate is added 20 μl of the Enzyme Solution followed by 10 μl of the compound to be evaluated in 20% aqueous DMSO. Purified HIV-1 protease was obtained as described below. The solution is incubated for one hour at room temperature and then 20 μl of a solution of the substrate N^α -Biotin-[…]N^e -FITC)-OH, in MES-ALB buffer (1.5 μl/ml) is added to each well. The solutions are incubated for 16 hours at room temperature and thereafter to each well is added 150 μl of MES-ALB buffer.
To each well of a 96-well Pandex plate is added 25 μl of the Avidin Coated Beads Solution. Next, 25 μl of the diluted incubation solutions, described above, are added to each well of the Pandex plate. The solutions are mixed well and the plates are loaded into a Pandex® machine, washed, evacuated and read. Sample detection was performed by excitation at 485 nm and reading the resulting epifluorescence at 535 nm.
A culture of E. coli K12 L507/pHP10D was grown to mid-log phase at 32° C. in LB media containing 12.5 μg/ml tetracycline. The cultivation temperature was quickly elevated to 40° C. to induce gene expression, and the cells were allowed to grow for 2.5 hours at this temperature before the culture was quickly chilled on ice. The cells were centrifuged and the cell pellet was resuspended in 20 ml 50 mmol MES buffer (pH 6.0) containing 1 mmol EDTA, 1 mmol DTT, 1 mmol PMSF, and 10% glycerol (Buffer A). Cells were lysed by sonication using a Fischer Model 300 Dismembrator and a microtip probe. […] Enzymatic activity was measured by HPLC using the synthetic peptide SQNYPIV as described in Margolin et al., Biochem. Biophys. Res. Commun., 167, 554-560 (1990); the production of the pl peptide (SQNY) was measured.
Active fractions were pooled, made 1.2M in ammonium sulfate, and applied to a hexyl agarose column (2.0×18 cm) equilibrated in Buffer A containing 1.2M ammonium sulfate. The sample, in 125 ml (1.85 mg/ml), was loaded at a flow rate of 1 ml/min at 4° C. […] The column was then washed isocratically in Buffer A for 120 min. Active fractions were pooled, concentrated to 10 ml using an Amicon stirred cell with a YM-10 membrane, and applied at 1 ml/min to a MonoS cation exchange column (1.0×10 cm) equilibrated in Buffer A. After washing isocratically for 30 min, protease was eluted using a linear gradient of 0-0.45M NaCl in Buffer A over 40 min followed by an isocratic wash with Buffer A containing 0.45M NaCl over 30 min. Chromatography was performed at 25° C.
Pooled active fractions were concentrated to 200 ul using an Amicon stirred cell and a YM-10 membrane, and the protease was then applied to a Superose 6 size exclusion column equilibrated in Buffer A containing 0.1M NaCl. The column was washed isocratically in this buffer at a flow rate of 0.5 ml/min.

As usually defined, the IC50 is the concentration that inhibits the measured activity by half. Take `CC(C)(C)NC(=O)c1cc2ccccc2cc1C[C@@H](O)[C@H](Cc1ccccc1)NC(=O)[C@H](CC(N)=O)NC(=O)c1ccc2ccccc2n1` (relative stereo) [Example 5, 1S-(1R*. 4R*, 5S*)]-N-(1-(2-amino-2-oxoethyl)-2-oxo-3-aza-4-phenylmethyl-5-hydroxy-6-(3-(1-t-butylamino-1-oxomethyl)-2-naphthyl)hexyl)-2-quinolinyl carboxamide]: the IC50 was 12.7 nM. With `CC(C)(C)NC(=O)c1ccccc1C[C@@H](O)[C@H](Cc1ccccc1)NC(=O)[C@H](CC(N)=O)NC(=O)OCc1ccccc1` (relative stereo) [Example 11, [2R-(2R*, 3S*, 6S*)]-N-t-butyl-2-(2-hydroxy-3-phenylmethyl-4-aza-5-oxo-6-(2-amino-2-oxomethyl)-6-phenylmethoxycarbonyl)hexyl)benzamide], for the setting “purified HIV-1 protease, MES-ALB buffer pH 5.5, 1 h preincubation, 16 h with substrate, room temperature, IC50 values for Examples 2-70 are standardized relative to Ex 1”, the “Fluorescence Assay IC50” value was 0.01 µg/mL. Take `CC(C)(C)NC(=O)c1ccccc1C[C@@H](O)[C@H](Cc1ccccc1)NC(=O)[C@H](CC(N)=O)NC(=O)C1Cc2ccccc2CN1` (single isomer, unassigned) [Example 36, [1S-(1R*, 4R*, 5S*)]-N-(1-(2-amino-2-oxoethyl)-2-oxo-3-aza-4-phenylmethyl-5-hydroxy-6-(2-(1-t-butylamino-1-oxomethyl)phenyl)hexyl)-3-(1,2,3,4-tetrahydroisoquinolinyl) carboxamide]: the IC50 is 1060 nM. The same measure, in the same setting: as for `CC(C)(C)NC(=O)c1ccccc1C[C@@H](O)[C@H](Cc1ccccc1)NC(=O)[C@H](CC(N)=O)NC(=O)C1Cc2ccccc2CN1` (single isomer, unassigned) [Example 37, [1S-(1R*, 4R*, 5S*)]-N-(1-(2-amino-2-oxoethyl)-2-oxo-3-aza-4-phenylmethyl-5-hydroxy-6-(2-(1-t-butylamino-1-oxomethyl)phenyl)hexyl)-3-(1,2,3,4-tetrahydroisoquinolinyl) carboxamide], the figure is 34.2 nM; as for `CC(C)(C)NC(=O)c1ccccc1C[C@@H](O)[C@H](Cc1ccccc1)NC(=O)[C@H](CC(N)=O)NC(=O)c1ccc2ccccc2[n+]1[O-]` [Example 7, [1S-(1R*, 4R*, 5S*)]-N-(1-(2-amino-2-oxoethyl)-2-oxo-3-aza-4-phenylmethyl-5-hydroxy-6-(2-(1-t-butylamino-1-oxomethyl)phenyl)hexyl)-1-oxo-2-quinolinyl carboxamide], 28.8 nM; as for `CC(C)(C)NC(=O)c1ccccc1C[C@@H](O)[C@H](Cc1ccc(OCc2ccccc2)cc1)NC(=O)[C@H](CC(N)=O)NC(=O)c1ccc2ccccc2n1` [Example 9, [1S-(1R*, 4R*, 5S*)]-N-(1-(2-amino-2-oxoethyl)-2-oxo-3-aza-4-(4-phenylmethyloxy)phenylmethyl-5-hydroxy-6-(2-(1-t-butylamino-1-oxomethyl)phenyl)hexyl)-2-quinolinyl carboxamide], 12 nM. On the same count and under the same terms, with `CC(C)(C)NC(=O)c1ccccc1C[C@@H](O)[C@H](Cc1ccc(O)cc1)NC(=O)[C@H](CC(N)=O)NC(=O)c1ccc2ccccc2n1` [Example 10, [1S-(1R*, 4R*. 5S*) ]-N-(1-(2-amino-2-oxoethyl)-2-oxo-3-aza-4-(4-hydroxyphenyl)methyl-5-hydroxy-6-(2-(1-t-butylamino-1-oxomethyl)phenyl)hexyl)-2-quinolinyl carboxamide] the figure was 94.3 nM; with `CC(C)(C)NC(=O)c1ccccc1C[C@@H](O)[C@H](Cc1ccccc1)NC(=O)[C@H](CO)NC(=O)OCc1ccccc1` [Example 12, [2R-(2R*, 3S*, 6S*)]-N-t-butyl-2-(2-hydroxy-3-phenylmethyl-4-aza-5-oxo-6-hydroxymethyl-6-(N-phenylmethoxycarbonyl-amino)hexyl)benzamide], 890 nM; with `CC(C)(C)C(=O)Nc1ccccc1C[C@@H](O)[C@H](Cc1ccccc1)NC(=O)[C@H](CC(N)=O)NC(=O)c1ccc2ccccc2n1` [Example 18, [1S-(1R*, 4R*, 5S*)]-N-(1-(2-amino-2-oxoethyl)-2-oxo-3-aza-4-phenylmethyl-5-hydroxy-6-(2-(2,2-dimethyl-1-oxopropylamino)phenyl)hexyl)-2-quinolinyl carboxamide], 50.8 nM.

Source of the values: US5719287A, “Intermediates for inhibitors of HIV protease and method of preparation thereof” (Eli Lilly and Company, priority 1995, dated 1998).
